Laboratory results as given in ChEMBL document CHEMBL4219190, “Studies on synthesis of novel pyrido[2,3-d]pyrimidine derivatives, evaluation of their antimicrobial activity and molecular docking” (Bioorg Med Chem Lett, 2018).
Converted amounts (≈) assume the structure as drawn. The source made the active and inactive calls. The calls are words filed in the database; no cut-off is given here.

Columns and labels:
Pseudomonas aeruginosa [1] = assay: Antibacterial activity against Pseudomonas aeruginosa MTCC 2453 after 24 hrs by well diffusion method; type: functional; conditions: MTCC 2453, 24 h
Pichia sporocuriosa [2] = assay: Antifungal activity against Issatchenkia hanoiensis MTCC 4755 after 24 hrs by well diffusion method; type: functional; conditions: MTCC 4755, 24 h
[Candida] aaseri [3] = Antifungal activity against Candida aaseri MTCC 1962 after 24 hrs by well diffusion method; type: functional; conditions: Yamadazyma aaseri, MTCC 1962, 24 h
Candida albicans [4] = assay: Fungicidal activity against Candida albicans MTCC 227 incubated for 24 hrs followed by transfer of microbial suspension to Sabouraud dextrose agar plates and measured after 24 hrs post transfer; type: functional; conditions: MTCC 227, 24 h
Escherichia coli [5] = assay: Bactericidal activity against Escherichia coli MTCC 739 incubated for 24 hrs followed by transfer of microbial suspension to Mueller Hinton agar plates and measured after 24 hrs post transfer; type: functional; conditions: MTCC 739, 24 h
Bacillus subtilis [6] = assay: Antibiofilm activity against Bacillus subtilis MTCC 121 after 24 hrs by crystal violet staining-based assay; type: functional, organism-based; conditions: Bacillus subtilis, MTCC 121, 24 h; read-out: IC50
Micrococcus luteus [7] = assay: Bactericidal activity against Micrococcus luteus MTCC 2470 incubated for 24 hrs followed by transfer of microbial suspension to Mueller Hinton agar plates and measured after 24 hrs post transfer; type: functional; conditions: MTCC 2470, 24 h
Bacillus subtilis [8] = assay: Antibacterial activity against Bacillus subtilis MTCC 121 after 24 hrs by well diffusion method; type: functional; conditions: MTCC 121, 24 h
Candida albicans [9] = assay: Fungicidal activity against Candida albicans MTCC 3958 incubated for 24 hrs followed by transfer of microbial suspension to Sabouraud dextrose agar plates and measured after 24 hrs post transfer; type: functional; conditions: MTCC 3958, 24 h
Raoultella planticola [10] = assay: Antibacterial activity against Klebsiella planticola MTCC 530 after 24 hrs by well diffusion method; type: functional; conditions: MTCC 530, 24 h
Bacillus subtilis [11] = assay: Bactericidal activity against Bacillus subtilis MTCC 121 incubated for 24 hrs followed by transfer of microbial suspension to Mueller Hinton agar plates and measured after 24 hrs post transfer; type: functional; conditions: MTCC 121, 24 h
Candida albicans [12] = assay: Fungicidal activity against Candida albicans MTCC 3017 incubated for 24 hrs followed by transfer of microbial suspension to Sabouraud dextrose agar plates and measured after 24 hrs post transfer; type: functional; conditions: MTCC 3017, 24 h
Candida albicans [13] = assay: Antifungal activity against Candida albicans MTCC 227 after 24 hrs by well diffusion method; type: functional; conditions: MTCC 227, 24 h
Candida albicans [14] = assay: Antifungal activity against Candida albicans MTCC 1637 after 24 hrs by well diffusion method; type: functional; conditions: MTCC 1637, 24 h
Candida albicans [15] = assay: Antifungal activity against Candida albicans MTCC 854 after 24 hrs by well diffusion method; type: functional; conditions: MTCC 854, 24 h
Raoultella planticola [16] = assay: Antibiofilm activity against Klebsiella planticola MTCC 530 after 24 hrs by crystal violet staining-based assay; type: functional, organism-based; conditions: Klebsiella planticola, MTCC 530, 24 h; read-out: IC50
Candida albicans [17] = assay: Antifungal activity against Candida albicans MTCC 183 after 24 hrs by well diffusion method; type: functional; conditions: MTCC 183, 24 h
Raoultella planticola [18] = assay: Bactericidal activity against Klebsiella planticola MTCC 530 incubated for 24 hrs followed by transfer of microbial suspension to Mueller Hinton agar plates and measured after 24 hrs post transfer; type: functional; conditions: MTCC 530, 24 h
Candida albicans [19] = assay: Antifungal activity against Candida albicans MTCC 3958 after 24 hrs by well diffusion method; type: functional; conditions: MTCC 3958, 24 h
[Candida] aaseri [20] = Fungicidal activity against Candida aaseri MTCC 1962 incubated for 24 hrs followed by transfer of microbial suspension to Sabouraud dextrose agar plates and measured after 24 hrs post transfer; type: functional; conditions: Yamadazyma aaseri, MTCC 1962, 24 h
Candida albicans [21] = assay: Fungicidal activity against Candida albicans MTCC 3018 incubated for 24 hrs followed by transfer of microbial suspension to Sabouraud dextrose agar plates and measured after 24 hrs post transfer; type: functional; conditions: MTCC 3018, 24 h
Candida albicans [22] = assay: Antifungal activity against Candida albicans MTCC 3017 after 24 hrs by well diffusion method; type: functional; conditions: MTCC 3017, 24 h
Pichia sporocuriosa [23] = assay: Fungicidal activity against Issatchenkia hanoiensis MTCC 4755 incubated for 24 hrs followed by transfer of microbial suspension to Sabouraud dextrose agar plates and measured after 24 hrs post transfer; type: functional; conditions: MTCC 4755, 24 h
Candida albicans [24] = assay: Antifungal activity against Candida albicans MTCC 4748 after 24 hrs by well diffusion method; type: functional; conditions: MTCC 4748, 24 h
Pseudomonas aeruginosa [25] = assay: Bactericidal activity against Pseudomonas aeruginosa MTCC 2453 incubated for 24 hrs followed by transfer of microbial suspension to Mueller Hinton agar plates and measured after 24 hrs post transfer; type: functional; conditions: MTCC 2453, 24 h
Candida albicans [26] = assay: Antifungal activity against Candida albicans MTCC 3018 after 24 hrs by well diffusion method; type: functional; conditions: MTCC 3018, 24 h
Candida albicans [27] = assay: Fungicidal activity against Candida albicans MTCC 183 incubated for 24 hrs followed by transfer of microbial suspension to Sabouraud dextrose agar plates and measured after 24 hrs post transfer; type: functional; conditions: MTCC 183, 24 h
Candida albicans [28] = assay: Fungicidal activity against Candida albicans MTCC 7315 incubated for 24 hrs followed by transfer of microbial suspension to Sabouraud dextrose agar plates and measured after 24 hrs post transfer; type: functional; conditions: MTCC 7315, 24 h
Staphylococcus aureus [29] = assay: Bactericidal activity against Staphylococcus aureus MTCC 96 incubated for 24 hrs followed by transfer of microbial suspension to Mueller Hinton agar plates and measured after 24 hrs post transfer; type: functional; conditions: MTCC 96, 24 h
Candida albicans [30] = assay: Fungicidal activity against Candida albicans MTCC 1637 incubated for 24 hrs followed by transfer of microbial suspension to Sabouraud dextrose agar plates and measured after 24 hrs post transfer; type: functional; conditions: MTCC 1637, 24 h
Escherichia coli [31] = assay: Antibacterial activity against Escherichia coli MTCC 739 after 24 hrs by well diffusion method; type: functional; conditions: MTCC 739, 24 h
Candida parapsilosis [32] = assay: Fungicidal activity against Candida parapsilosis MTCC 1744 incubated for 24 hrs followed by transfer of microbial suspension to Sabouraud dextrose agar plates and measured after 24 hrs post transfer; type: functional; conditions: Lodderomyces parapsilosis, MTCC 1744, 24 h
Candida albicans [33] = assay: Antifungal activity against Candida albicans MTCC 7315 after 24 hrs by well diffusion method; type: functional; conditions: MTCC 7315, 24 h
Nakaseomyces glabratus [34] = assay: Fungicidal activity against Candida glabrata MTCC 3019 incubated for 24 hrs followed by transfer of microbial suspension to Sabouraud dextrose agar plates and measured after 24 hrs post transfer; type: functional; conditions: MTCC 3019, 24 h
Candida albicans [35] = assay: Fungicidal activity against Candida albicans MTCC 854 incubated for 24 hrs followed by transfer of microbial suspension to Sabouraud dextrose agar plates and measured after 24 hrs post transfer; type: functional; conditions: MTCC 854, 24 h
Pichia kudriavzevii [36] = assay: Antifungal activity against Candida krusei MTCC 3020 after 24 hrs by well diffusion method; type: functional
Candida parapsilosis [37] = assay: Antifungal activity against Candida parapsilosis MTCC 1744 after 24 hrs by well diffusion method; type: functional; conditions: MTCC 1744, 24 h
Nakaseomyces glabratus [38] = assay: Antifungal activity against Candida glabrata MTCC 3019 after 24 hrs by well diffusion method; type: functional; conditions: MTCC 3019, 24 h
Staphylococcus aureus [39] = assay: Antibiofilm activity against Staphylococcus aureus MTCC 96 after 24 hrs by crystal violet staining-based assay; type: functional, organism-based; conditions: Staphylococcus aureus, MTCC 96, 24 h; read-out: IC50
Staphylococcus aureus [40] = assay: Bactericidal activity against Staphylococcus aureus MLS16 MTCC 2940 incubated for 24 hrs followed by transfer of microbial suspension to Mueller Hinton agar plates and measured after 24 hrs post transfer; type: functional; conditions: MLS16 MTCC 2940, 24 h
Pseudomonas aeruginosa [41] = assay: Antibiofilm activity against Pseudomonas aeruginosa MTCC 2453 after 24 hrs by crystal violet staining-based assay; type: functional, organism-based; conditions: Pseudomonas aeruginosa, MTCC 2453, 24 h; read-out: IC50
Pichia kudriavzevii [42] = assay: Fungicidal activity against Candida krusei MTCC 3020 incubated for 24 hrs followed by transfer of microbial suspension to Sabouraud dextrose agar plates and measured after 24 hrs post transfer; type: functional
Staphylococcus aureus [43] = assay: Antibiofilm activity against Staphylococcus aureus MLS16 MTCC 2940 after 24 hrs by crystal violet staining-based assay; type: functional, organism-based; conditions: Staphylococcus aureus, MLS16 MTCC 2940, 24 h; read-out: IC50
Staphylococcus aureus [44] = assay: Antibacterial activity against Staphylococcus aureus MTCC 96 after 24 hrs by well diffusion method; type: functional; conditions: MTCC 96, 24 h
Candida albicans [45] = assay: Fungicidal activity against Candida albicans MTCC 4748 incubated for 24 hrs followed by transfer of microbial suspension to Sabouraud dextrose agar plates and measured after 24 hrs post transfer; type: functional; conditions: MTCC 4748, 24 h
Staphylococcus aureus [46] = assay: Antibacterial activity against Staphylococcus aureus MLS16 MTCC 2940 after 24 hrs by well diffusion method; type: functional; conditions: MLS16 MTCC 2940, 24 h
Micrococcus luteus [47] = assay: Antibacterial activity against Micrococcus luteus MTCC 2470 after 24 hrs by well diffusion method; type: functional; conditions: MTCC 2470, 24 h

SMILES: COc1ccc(-c2nc(C(=O)N3CCN(C)CC3)nc3nc(-c4ccccc4)cc(C(F)(F)F)c23)cc1
- MIC (Pseudomonas aeruginosa [1]): 7.8 µg/mL (≈ 15.4 µM)
- MIC (Pichia sporocuriosa [2]): 7.8 µg/mL (≈ 15.4 µM)
- MIC ([Candida] aaseri [3]): 15.6 µg/mL (≈ 30.7 µM)
- MFC (Candida albicans [4]): 31.2 µg/mL (≈ 61.5 µM)
- MBC (Escherichia coli [5]): 31.2 µg/mL (≈ 61.5 µM)
- IC50 (Bacillus subtilis [6]): 2.7 µg/mL (≈ 5.32 µM)
- MBC (Micrococcus luteus [7]): 31.2 µg/mL (≈ 61.5 µM)
- MIC (Bacillus subtilis [8]): 7.8 µg/mL (≈ 15.4 µM)
- MFC (Candida albicans [9]): 62.5 µg/mL (≈ 123 µM)
- MIC (Raoultella planticola [10]): 15.6 µg/mL (≈ 30.7 µM)
- MBC (Bacillus subtilis [11]): 15.6 µg/mL (≈ 30.7 µM)
- MFC (Candida albicans [12]): 7.8 µg/mL (≈ 15.4 µM)
- MIC (Candida albicans [13]): 31.2 µg/mL (≈ 61.5 µM)
- MIC (Candida albicans [14]): 15.6 µg/mL (≈ 30.7 µM)
- MIC (Candida albicans [15]): 15.6 µg/mL (≈ 30.7 µM)
- IC50 (Raoultella planticola [16]): 10.8 µg/mL (≈ 21.3 µM)
- MIC (Candida albicans [17]): 3.9 µg/mL (≈ 7.68 µM)
- MBC (Raoultella planticola [18]): 31.2 µg/mL (≈ 61.5 µM)
- MIC (Candida albicans [19]): 62.5 µg/mL (≈ 123 µM)
- MFC ([Candida] aaseri [20]): 31.2 µg/mL (≈ 61.5 µM)
- MFC (Candida albicans [21]): 62.5 µg/mL (≈ 123 µM)
- MIC (Candida albicans [22]): 3.9 µg/mL (≈ 7.68 µM)
- MFC (Pichia sporocuriosa [23]): 15.6 µg/mL (≈ 30.7 µM)
- MIC (Candida albicans [24]): 62.5 µg/mL (≈ 123 µM)
- MBC (Pseudomonas aeruginosa [25]): 15.6 µg/mL (≈ 30.7 µM)
- MIC (Candida albicans [26]): 31.2 µg/mL (≈ 61.5 µM)
- MFC (Candida albicans [27]): 7.8 µg/mL (≈ 15.4 µM)
- MFC (Candida albicans [28]): 62.5 µg/mL (≈ 123 µM)
- MBC (Staphylococcus aureus [29]): 15.6 µg/mL (≈ 30.7 µM)
- MFC (Candida albicans [30]): 31.2 µg/mL (≈ 61.5 µM)
- MIC (Escherichia coli [31]): 15.6 µg/mL (≈ 30.7 µM)
- MFC (Candida parapsilosis [32]): 31.2 µg/mL (≈ 61.5 µM)
- MIC (Candida albicans [33]): 31.2 µg/mL (≈ 61.5 µM)
- MFC (Nakaseomyces glabratus [34]): 15.6 µg/mL (≈ 30.7 µM)
- MFC (Candida albicans [35]): 31.2 µg/mL (≈ 61.5 µM)
- MIC (Pichia kudriavzevii [36]): inactive
- MIC (Candida parapsilosis [37]): 15.6 µg/mL (≈ 30.7 µM)
- MIC (Nakaseomyces glabratus [38]): 7.8 µg/mL (≈ 15.4 µM)
- IC50 (Staphylococcus aureus [39]): 5.4 µg/mL (≈ 10.6 µM)
- MBC (Staphylococcus aureus [40]): 15.6 µg/mL (≈ 30.7 µM)
- IC50 (Pseudomonas aeruginosa [41]): 2.7 µg/mL (≈ 5.32 µM)
- MFC (Pichia kudriavzevii [42]): inactive
- IC50 (Staphylococcus aureus [43]): 10.8 µg/mL (≈ 21.3 µM)
- MIC (Staphylococcus aureus [44]): 7.8 µg/mL (≈ 15.4 µM)
- MFC (Candida albicans [45]): 62.5 µg/mL (≈ 123 µM)
- MIC (Staphylococcus aureus [46]): 15.6 µg/mL (≈ 30.7 µM)
- MIC (Micrococcus luteus [47]): 15.6 µg/mL (≈ 30.7 µM)
